Converted amounts (≈) assume the structure as drawn.

Consider 9 molecules from patent publication US11198673B2, “Therapeutic compounds and compositions” (eXIthera Pharmaceuticals, Inc., priority 2014, dated 2021).

T2 sequence (P03951 388-625 limits assumed): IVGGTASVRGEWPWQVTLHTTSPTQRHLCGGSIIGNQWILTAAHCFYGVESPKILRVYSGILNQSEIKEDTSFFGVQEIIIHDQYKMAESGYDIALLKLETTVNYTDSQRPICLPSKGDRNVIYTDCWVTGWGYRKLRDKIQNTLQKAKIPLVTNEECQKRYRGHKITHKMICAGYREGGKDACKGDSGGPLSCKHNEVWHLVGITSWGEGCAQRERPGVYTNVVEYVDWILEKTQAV
T2 sequence (P03951 19-387 partner limits assumed): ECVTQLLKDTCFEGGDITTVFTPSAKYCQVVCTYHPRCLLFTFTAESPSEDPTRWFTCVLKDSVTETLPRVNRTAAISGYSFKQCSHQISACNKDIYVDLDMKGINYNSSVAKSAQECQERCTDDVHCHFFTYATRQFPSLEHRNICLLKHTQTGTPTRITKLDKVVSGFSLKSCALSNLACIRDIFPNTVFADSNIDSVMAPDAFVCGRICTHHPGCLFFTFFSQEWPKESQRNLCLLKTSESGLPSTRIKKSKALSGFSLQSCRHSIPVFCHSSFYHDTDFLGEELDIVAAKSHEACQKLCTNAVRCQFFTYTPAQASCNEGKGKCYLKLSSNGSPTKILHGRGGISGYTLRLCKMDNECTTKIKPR

One series has as its target T1, Thrombin (Homo sapiens, UniProt P00734).
T1 construct: Thrombin; 0.2 μM in 50% glycerol (7.34 μg/mL)
The experiment in a line: Dose response assay for protease inhibitors: thrombin (FXIa fold selectivity). Type of series: biochemical. The conditions noted are these: fold selectivity for FXIa over thrombin. Here is the method:
(§1) • Assay buffer: 20 mM Hepes, pH 7.4; 150 mM NaCl; 0.02% Tween 20 • Compounds: 10 mM stocks in DMSO • Substrate: 20 mM Glp-Pro-Arg-AMC, 25 mg/2.3 mL H2O (store at +4° C.) [Factor XIa, thrombin, and trypsin] • 20 mM Pro-Phe-Arg-AMC (Bachem I-1295), 25 mg/2.2 mL H2O (store at +4° C.) [Factor Xa] • Enzyme: Factor XIa; 0.25 μM in 50% glycerol (20 μg/mL) • Trypsin; 0.2 μM in 50% glycerol (4.8 μg/mL) • Thrombin; 0.2 μM in 50% glycerol (7.34 μg/mL) • Factor Xa; 0.2 μM in 50% glycerol (9.2 μg/mL) • These stocks are aliquoted ([…]) and stored at −20° C. Methods: • 1. Dilute the substrate to 100 μM in assay buffer (30 μL/6 mL). The enzyme is diluted to 0.5 nM just prior to use (12 μL/6 mL for Factor XIa; 15 μL/6 mL for all of the rest.) • 2. Pipette 50 μL of substrate into each well of the 96 well (12×8) microtiter plate. (Column 1 is used as the 100% activity control and receives no compound, and Column 12 is the blank and receives no enzyme.) Add an additional 46 μL to column 2. • 3. Pipette 4 μL of each compound into the appropriate well in column 2 of the plate (unknowns assayed in triplicate, standard assayed in duplicate). The final compound concentration will be 1/50th of the stock. • 4. Serially two-fold dilute the compound by mixing the sample in column 2, removing 50 μL to the next well (column 3), mix and remove to column 4, etc. until column 11. After mixing column 11, remove 50 μL and discard. • 5. Pipette 50 μL of buffer into column 12. Initiate the reaction by adding 50 μL of enzyme solution to each well of columns 1-11 as rapidly as possible. • 6. Read the plate in a spectrophotometer (SpectraMax) at 30° C., wherein each well is measured every 60 s for 30 min. For Factor Xa assays, each well is measured every 1 min for a total of 60 min. • 7. For Factor XIa assays, the compounds are assayed, in duplicate, at 3 different starting concentrations, 20, 2, and 0.2 μM; 1:10, 1:100, and 1:1000 dil'n of 10 mM stock. All data sets are combined for graphing and data fitting. • 8. Data can be used both for estimation of IC50 and for estimation of Kon.
`CCOC(=O)[C@@H]1[C@@H](Cc2ccnc(NC(=O)OCOC(=O)C(C)C)c2)C(=O)N1C(=O)N[C@@H](C1CCCCC1)C(F)(F)F` [Example 140]: the “FXIa Fold Selectivity Thrombin” value is reported as “I (“I” indicates >1000)”.
Same read-out and setting: the entry for `CCOC(=O)[C@@H]1[C@@H](Cc2ccnc(N)c2)C(=O)N1C(=O)N[C@H](C)c1ccc(OC(F)(F)F)cc1` [Example 103] is “H (“H” indicates 500-1000)”; for `C[C@@H](NC(=O)N1C(=O)[C@H](Cc2ccnc(N)c2)[C@H]1C#N)c1ccccc1` [Example 34] it is “I (“I” indicates >1000)”.
Consider `C[C@@H](NC(=O)N1C(=O)[C@H](Cc2ccnc(N)c2)[C@H]1C(=O)O)c1ccc(F)c(F)c1` [Example 68], for which the “FXIa Fold Selectivity Thrombin” value is on record as “I (“I” indicates >1000)”.
On the same count and under the same terms, to `CC(C)[C@@H](C)NC(=O)N1C(=O)[C@H](Cc2ccnc(N)c2)[C@H]1C(=O)O` [Example 32] belongs “G (“G” indicates 1-500)”; to `C[C@H](NC(=O)N1C(=O)[C@H](Cc2ccnc(N)c2)[C@H]1C(=O)O)c1ccc2c(c1)OC(F)(F)O2` [Example 130], “G (“G” indicates 1-500)”.
In the case of `C[C@@H](NC(=O)N1C(=O)[C@H](Cc2ccnc(N)c2)[C@H]1C(=O)O)C1CCCCCCC1` [Example 104], the “FXIa Fold Selectivity Thrombin” value is recorded as “I (“I” indicates >1000)”.
The same measure, in the same setting: to `CCOC(=O)[C@@H]1[C@@H](Cc2ccnc(NC(=O)[C@H](C)N)c2)C(=O)N1C(=O)N[C@H](C)c1ccc2c(c1)OC(F)(F)O2` [Example 148] belongs “G (“G” indicates 1-500)”.

The next series concerns Trypsin. The experiment in a line: Dose response assay for protease inhibitors: trypsin (FXIa fold selectivity). Type of series: biochemical. The conditions noted are these: fold selectivity for FXIa over trypsin. Here is the method: as §1
On to `CCOC(=O)[C@@H]1[C@@H](Cc2ccnc(NC(=O)OCOC(=O)C(C)C)c2)C(=O)N1C(=O)N[C@@H](C1CCCCC1)C(F)(F)F` [Example 140], for which the “FXIa Fold Selectivity Trypsin” value is given as “G (“G” indicates 1-500)”.
On the same count and under the same terms, the entry for `CCOC(=O)[C@@H]1[C@@H](Cc2ccnc(N)c2)C(=O)N1C(=O)N[C@H](C)c1ccc(OC(F)(F)F)cc1` [Example 103] is “G (“G” indicates 1-500)”; for `C[C@@H](NC(=O)N1C(=O)[C@H](Cc2ccnc(N)c2)[C@H]1C#N)c1ccccc1` [Example 34] it is “G (“G” indicates 1-500)”; for `C[C@@H](NC(=O)N1C(=O)[C@H](Cc2ccnc(N)c2)[C@H]1C(=O)O)c1ccc(F)c(F)c1` [Example 68] it is “I (“I” indicates >1000)”.
On the same count and under the same terms, the entry for `CC(C)[C@@H](C)NC(=O)N1C(=O)[C@H](Cc2ccnc(N)c2)[C@H]1C(=O)O` [Example 32] is “G (“G” indicates 1-500)”; for `C[C@H](NC(=O)N1C(=O)[C@H](Cc2ccnc(N)c2)[C@H]1C(=O)O)c1ccc2c(c1)OC(F)(F)O2` [Example 130] it is “G (“G” indicates 1-500)”; for `C[C@@H](NC(=O)N1C(=O)[C@H](Cc2ccnc(N)c2)[C@H]1C(=O)O)C1CCCCCCC1` [Example 104] it is “I (“I” indicates >1000)”.
The same measure, in the same setting: the entry for `CCOC(=O)[C@@H]1[C@@H](Cc2ccnc(NC(=O)[C@H](C)N)c2)C(=O)N1C(=O)N[C@H](C)c1ccc2c(c1)OC(F)(F)O2` [Example 148] is “G (“G” indicates 1-500)”.

Tested on in a further series: not listed separately
The experiment in a line: β-Lactam stability in rat plasma. Type of series: in vitro ADME. The note with it: normal rat plasma, room temperature; read-out: Rat Plasma Stability (T1/2; min). The method, boiled down: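 Compounds incubated in normal rat plasma at room temperature, sampled into acetonitrile from 2 to 480 min. Supernatants analysed by HPLC-MS on C18, extracted ion chromatograms of parent and parent+18 (H2O adduct) integrated; T½ = ln(2)/k from single-phase exponential decay fit.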
As to `CCOC(=O)[C@@H]1[C@@H](Cc2ccnc(NC(=O)OCOC(=O)C(C)C)c2)C(=O)N1C(=O)N[C@@H](C1CCCCC1)C(F)(F)F` [Example 140], the half-life was below 1.67 h.
On to `CCOC(=O)[C@@H]1[C@@H](Cc2ccnc(N)c2)C(=O)N1C(=O)N[C@H](C)c1ccc(OC(F)(F)F)cc1` [Example 103], for which the half-life is below 1.67 h.
The same measure, in the same setting: to `C[C@@H](NC(=O)N1C(=O)[C@H](Cc2ccnc(N)c2)[C@H]1C#N)c1ccccc1` [Example 34] belongs below 1.67 h.
Same read-out and setting: to `C[C@@H](NC(=O)N1C(=O)[C@H](Cc2ccnc(N)c2)[C@H]1C(=O)O)c1ccc(F)c(F)c1` [Example 68] belongs above 1.67 h; to `CC(C)[C@@H](C)NC(=O)N1C(=O)[C@H](Cc2ccnc(N)c2)[C@H]1C(=O)O` [Example 32], above 1.67 h.
Take `C[C@H](NC(=O)N1C(=O)[C@H](Cc2ccnc(N)c2)[C@H]1C(=O)O)c1ccc2c(c1)OC(F)(F)O2` [Example 130]: the half-life was above 1.67 h.
For the molecule `C[C@@H](NC(=O)N1C(=O)[C@H](Cc2ccnc(N)c2)[C@H]1C(=O)O)C1CCCCCCC1` [Example 104], the half-life is above 1.67 h.
Same read-out and setting: the figure for `CCOC(=O)[C@@H]1[C@@H](Cc2ccnc(NC(=O)[C@H](C)N)c2)C(=O)N1C(=O)N[C@H](C)c1ccc2c(c1)OC(F)(F)O2` [Example 148] is below 1.67 h.

Another series addresses T2, human Factor XIa (Homo sapiens, UniProt P03951).
T2 construct: Enzyme: Factor XIa; 0.25 μM in 50% glycerol (20 μg/mL)
Put plainly: Factor XIa enzyme inhibition assay (IC50, purified enzyme). Type of series: biochemical. The note with it: purified enzyme 0.25 nM, substrate 50 μM; read-out: Potency hFXIa IC50. The method, boiled down:
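Fluorogenic Glp-Pro-Arg-AMC cleavage, 50 μM substrate, 0.25 nM enzyme, in 20 mM Hepes pH 7.4, 150 mM NaCl, 0.02% Tween 20. Serial two-fold compound dilutions from starting concentrations of 20, 2 and 0.2 μM. Read every minute for 30 min at 30° C; IC50 from a four-parameter fit of dose-response.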
For orientation: IC50 means the concentration needed to halve the response being measured. As to `CCOC(=O)[C@@H]1[C@@H](Cc2ccnc(NC(=O)OCOC(=O)C(C)C)c2)C(=O)N1C(=O)N[C@@H](C1CCCCC1)C(F)(F)F` [Example 140], the IC50 lay within 10 to 100 nM.
Turning to `CCOC(=O)[C@@H]1[C@@H](Cc2ccnc(N)c2)C(=O)N1C(=O)N[C@H](C)c1ccc(OC(F)(F)F)cc1` [Example 103], the IC50 is below 10 nM.
`C[C@@H](NC(=O)N1C(=O)[C@H](Cc2ccnc(N)c2)[C@H]1C#N)c1ccccc1` [Example 34]: the IC50 is below 10 nM.
On the same count and under the same terms, the figure for `C[C@@H](NC(=O)N1C(=O)[C@H](Cc2ccnc(N)c2)[C@H]1C(=O)O)c1ccc(F)c(F)c1` [Example 68] is below 10 nM; for `CC(C)[C@@H](C)NC(=O)N1C(=O)[C@H](Cc2ccnc(N)c2)[C@H]1C(=O)O` [Example 32] it is 10 to 100 nM.
For the molecule `C[C@H](NC(=O)N1C(=O)[C@H](Cc2ccnc(N)c2)[C@H]1C(=O)O)c1ccc2c(c1)OC(F)(F)O2` [Example 130], the IC50 lay in the range of 100 to 1000 nM.
On the same count and under the same terms, the figure for `C[C@@H](NC(=O)N1C(=O)[C@H](Cc2ccnc(N)c2)[C@H]1C(=O)O)C1CCCCCCC1` [Example 104] is below 10 nM; for `CCOC(=O)[C@@H]1[C@@H](Cc2ccnc(NC(=O)[C@H](C)N)c2)C(=O)N1C(=O)N[C@H](C)c1ccc2c(c1)OC(F)(F)O2` [Example 148] it is 100 to 1000 nM.

In the next series the target is T3, Factor Xa (Homo sapiens, UniProt P00742).
T3 construct: Factor Xa; 0.2 μM in 50% glycerol (9.2 μg/mL)
T3 sequence (P00742 235-488 limits assumed): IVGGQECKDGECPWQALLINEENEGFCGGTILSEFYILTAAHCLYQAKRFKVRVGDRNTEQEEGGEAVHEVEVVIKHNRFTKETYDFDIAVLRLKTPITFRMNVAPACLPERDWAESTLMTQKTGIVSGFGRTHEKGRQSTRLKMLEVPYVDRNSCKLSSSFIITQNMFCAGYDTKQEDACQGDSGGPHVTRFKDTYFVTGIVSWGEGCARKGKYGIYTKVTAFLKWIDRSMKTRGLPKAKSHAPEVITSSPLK
T3 sequence (P00742 41-179 partner limits assumed): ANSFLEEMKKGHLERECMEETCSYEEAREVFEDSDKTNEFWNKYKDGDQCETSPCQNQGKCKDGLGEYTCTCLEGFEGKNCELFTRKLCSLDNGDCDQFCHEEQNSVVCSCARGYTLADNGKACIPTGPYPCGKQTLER
The experiment in a line: Dose response assay for protease inhibitors: Factor Xa (FXIa fold selectivity). Type of series: biochemical. The note with it: fold selectivity for FXIa over Factor Xa. How it is done: as §1
In the case of `CCOC(=O)[C@@H]1[C@@H](Cc2ccnc(NC(=O)OCOC(=O)C(C)C)c2)C(=O)N1C(=O)N[C@@H](C1CCCCC1)C(F)(F)F` [Example 140], the “FXIa Fold Selectivity FXa” value is on record as “I (“I” indicates >1000)”.
On the same count and under the same terms, to `CCOC(=O)[C@@H]1[C@@H](Cc2ccnc(N)c2)C(=O)N1C(=O)N[C@H](C)c1ccc(OC(F)(F)F)cc1` [Example 103] belongs “I (“I” indicates >1000)”; to `C[C@@H](NC(=O)N1C(=O)[C@H](Cc2ccnc(N)c2)[C@H]1C#N)c1ccccc1` [Example 34], “I (“I” indicates >1000)”; to `C[C@@H](NC(=O)N1C(=O)[C@H](Cc2ccnc(N)c2)[C@H]1C(=O)O)c1ccc(F)c(F)c1` [Example 68], “G (“G” indicates 1-500)”.
Consider `CC(C)[C@@H](C)NC(=O)N1C(=O)[C@H](Cc2ccnc(N)c2)[C@H]1C(=O)O` [Example 32], for which the “FXIa Fold Selectivity FXa” value was “G (“G” indicates 1-500)”.
The same measure, in the same setting: the entry for `C[C@H](NC(=O)N1C(=O)[C@H](Cc2ccnc(N)c2)[C@H]1C(=O)O)c1ccc2c(c1)OC(F)(F)O2` [Example 130] is “G (“G” indicates 1-500)”; for `C[C@@H](NC(=O)N1C(=O)[C@H](Cc2ccnc(N)c2)[C@H]1C(=O)O)C1CCCCCCC1` [Example 104] it is “I (“I” indicates >1000)”; for `CCOC(=O)[C@@H]1[C@@H](Cc2ccnc(NC(=O)[C@H](C)N)c2)C(=O)N1C(=O)N[C@H](C)c1ccc2c(c1)OC(F)(F)O2` [Example 148] it is “G (“G” indicates 1-500)”.

Tested on in a further series: not listed separately
The experiment in a line: physchem. Type of series: physicochemical. The conditions noted are these: pH 7.4, aqueous buffer, kinetic from dmso stock. Here is the method:
The test compound was prepared at 200 μM in PBS from a 10 mM DMSO stock solution. The final DMSO concentration was 2%. The PBS buffer samples were mixed thoroughly followed by incubation at room temperature for 24 h. At the end of the incubation, the PBS buffer samples were centrifuged and supernatants analyzed by HPLC.
What is called solubility is how much of the substance goes into solution per volume. Low readings indicate little dissolved substance, high ones much dissolved substance. The molecule `COCCc1ccc(OCC(O)CNC(C)C)cc1` (centres unmarked) [metoprolol, reference compound] registered a solubility at 24 h of 200 µM (≈ 53.5 µg/mL).
